{"source": "patent US11666532B2", "about": "“Tranexamic acid oral solution” (Hyloris Developments SA, priority 2018, dated 2023)", "key": {"[1]": {"test": "Binary mixtures study: discoloration at 60° C., visual inspection", "format": "physicochemical", "details": "binary mixture with TXA in phosphoric acid solution pH 5.5, glass vials, 60° C. oven, 2 weeks", "protocol": "To determine which components of the formulation were responsible for the discoloration, binary mixtures of TXA and each component were dissolved in phosphoric acid solution at pH 5.5 in amounts representative to their concentration in Formulation A of Table 1A.\nSamples of each mixture in Table 1B were placed in glass vials and stored in 60° C. oven for 2 weeks and visually inspected periodically for discoloration. The samples from Table 1B containing TXA and Sorbitol (sample 5), or TXA and Glycerin (sample 3), or TXA and Poloxamer 407 (sample 6), or TXA and spearmint flavor F-4785, turned yellow. Thus sorbitol, glycerin, poloxamer 407 and spearmint flavor were considered to be the ingredients responsible for the discoloration of formula A.\nBinary mixtures of TXA and alternative surfactants were prepared and samples were stored in a 60° C. oven to test for discoloration as described in Table 2.\nBinary mixtures of Na CMC and TXA were prepared and stored at 60° C. for 2 weeks to test for discoloration as in Table 3."}, "[2]": {"molecular_target": "plasminogen (Homo sapiens, UniProt P00747)", "sequence (P00747 20-810 limits assumed)": "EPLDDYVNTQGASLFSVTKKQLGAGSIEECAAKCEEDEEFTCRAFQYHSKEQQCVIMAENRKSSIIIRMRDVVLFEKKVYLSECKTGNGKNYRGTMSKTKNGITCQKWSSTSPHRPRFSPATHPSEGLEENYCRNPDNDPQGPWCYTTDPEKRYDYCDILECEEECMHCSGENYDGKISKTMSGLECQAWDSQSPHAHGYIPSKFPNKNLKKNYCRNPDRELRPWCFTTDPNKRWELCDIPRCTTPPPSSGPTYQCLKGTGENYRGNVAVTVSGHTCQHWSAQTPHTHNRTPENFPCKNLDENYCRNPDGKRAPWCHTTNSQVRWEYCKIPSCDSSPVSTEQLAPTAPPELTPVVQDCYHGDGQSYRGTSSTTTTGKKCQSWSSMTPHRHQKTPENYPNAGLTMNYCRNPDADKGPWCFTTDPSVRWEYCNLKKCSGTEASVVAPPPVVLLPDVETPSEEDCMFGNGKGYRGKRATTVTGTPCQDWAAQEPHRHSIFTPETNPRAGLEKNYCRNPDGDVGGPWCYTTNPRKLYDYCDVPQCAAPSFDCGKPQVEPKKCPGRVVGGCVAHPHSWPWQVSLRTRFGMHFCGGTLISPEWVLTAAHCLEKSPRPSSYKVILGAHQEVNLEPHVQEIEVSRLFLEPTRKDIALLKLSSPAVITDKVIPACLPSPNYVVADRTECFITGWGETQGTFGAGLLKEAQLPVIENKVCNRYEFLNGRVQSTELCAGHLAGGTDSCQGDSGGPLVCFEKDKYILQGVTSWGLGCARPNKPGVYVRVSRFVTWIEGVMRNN", "details": "cited from earlier work"}, "[3]": {"system": "bleeding during or after dental procedures", "details": "local tranexamic acid as a supplement to systemic therapy; cited from earlier work"}, "[4]": {"system": "plasma protein", "details": "cited from earlier work"}, "[5]": {"details": "cited from earlier work"}, "[6]": {"details": "cited from earlier work", "remark": "listed apart in the source"}, "[7]": {"molecular_target": "serum albumin (Homo sapiens, UniProt P02768)", "sequence (P02768 25-609)": "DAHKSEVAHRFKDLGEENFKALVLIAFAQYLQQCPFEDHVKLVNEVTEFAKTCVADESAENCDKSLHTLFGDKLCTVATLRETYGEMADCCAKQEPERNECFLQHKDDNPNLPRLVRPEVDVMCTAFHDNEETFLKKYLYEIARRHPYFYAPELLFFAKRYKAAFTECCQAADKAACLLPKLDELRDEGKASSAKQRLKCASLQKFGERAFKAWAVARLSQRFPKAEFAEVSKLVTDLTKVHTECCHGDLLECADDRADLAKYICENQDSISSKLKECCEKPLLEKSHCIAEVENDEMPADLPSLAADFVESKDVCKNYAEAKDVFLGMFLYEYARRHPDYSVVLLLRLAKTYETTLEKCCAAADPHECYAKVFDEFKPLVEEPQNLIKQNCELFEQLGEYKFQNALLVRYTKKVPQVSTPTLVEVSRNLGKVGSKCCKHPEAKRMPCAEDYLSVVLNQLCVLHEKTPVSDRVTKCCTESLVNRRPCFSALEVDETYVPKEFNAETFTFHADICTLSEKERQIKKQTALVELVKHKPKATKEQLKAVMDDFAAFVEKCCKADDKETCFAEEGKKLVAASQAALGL", "details": "cited from earlier work"}, "[8]": {"system": "whole blood or citrated blood from normal subjects", "details": "cited from earlier work"}, "[9]": {"details": "after oral and intravenous administration"}, "[10]": {"details": "four doses of 10-20 mg per kg body weight 36-48 hours before surgery"}, "[11]": {"details": "three hours after a single oral dose of 25 mg per kg body weight"}}, "note": "Like-named read-outs stand apart in the source and are kept apart here."}
{"compound": "polyoxyethylene sorbitan monolaurate [Tween 20]", "values": [{"measurement": "Discoloration", "setting": "[1]", "value": "didn't cause discoloration"}]}
{"compound": "polyoxyethylene (20)sorbitan monooleate [Tween 80]", "values": [{"measurement": "Discoloration", "setting": "[1]", "value": "didn't cause discoloration"}]}
{"compound": "alpha-D-Glucopyranoside, beta-D-fructofuranosyl, monooctadecanoate [Sucrose Stearate]", "values": [{"measurement": "Discoloration", "setting": "[1]", "value": "did not dissolve into solution"}]}
{"compound": "beta-D-Fructofuranosyl-alpha-D-glucopyranoside, monododecanoate [Sucrose Laurate]", "values": [{"measurement": "Discoloration", "setting": "[1]", "value": "didn't cause discoloration"}]}
{"compound": "NC[C@H]1CC[C@H](C(=O)O)CC1", "note": "[tranexamic acid, trans-4-(aminomethyl) cyclohexanecarboxylic acid]", "values": [{"measurement": "binding to strong and weak sites in the plasminogen molecule relative to epsilon aminocaproic acid (EACA)", "setting": "[2]", "value": "considerably more strongly"}, {"measurement": "incidence of bleeding during or after dental procedures (postoperative bleeding)", "setting": "[3]", "value": "significantly reduces"}, {"measurement": "plasma protein binding", "setting": "[4]; at therapeutic plasma levels of 5-10 mg/L", "value": "negligible"}, {"measurement": "plasma protein binding", "setting": "[4]; at therapeutic plasma levels", "value": "about 3%"}, {"measurement": "excretion", "setting": "[5]; 24 hours after oral administration of 10-15 mg per kg body weight", "value": 39, "unit": "%"}, {"measurement": "concentration in fetal serum", "setting": "[5]; after intravenous injection of 10 mg per kg body weight", "value": "about 30 μg per mL"}, {"measurement": "acetylated product excreted", "setting": "[5]; after oral administration", "value": "~0.5", "unit": "%"}, {"measurement": "deaminated dicarboxylic acid excreted", "setting": "[5]; after oral administration", "value": "~2", "unit": "%"}, {"measurement": "parent compound excreted", "setting": "[5]; after oral administration", "value": "approximately 50%"}, {"measurement": "fibrinolytic activity of the semen", "setting": "[5]; [9]", "value": "inhibits"}, {"measurement": "motility of the spermatozoa", "setting": "[5]; [9]", "value": "without affecting"}, {"measurement": "passage into the semen", "setting": "[5]; [9]", "value": "passes into the semen"}, {"measurement": "concentration in breast milk relative to corresponding serum levels", "setting": "[5]; during lactation", "value": "1/100"}, {"measurement": "plasma concentration", "setting": "[5]; five hours after intravenous 10 mg per kg body weight", "value": 5, "unit": "μg per mL"}, {"measurement": "time an antifibrinolytically active concentration (10 μg/mL) remained in the serum", "setting": "[5]; [10]", "value": "7 to 8", "unit": "h"}, {"measurement": "time an antifibrinolytically active concentration (10 μg/mL) remained in the tissues investigated", "setting": "[5]; [10]", "value": "up to 17 hours"}, {"measurement": "biological half-life in the joint fluid", "setting": "[5]; in vivo", "value": "about 3 hours"}, {"measurement": "concentration in the joint fluid compared with the serum", "setting": "[5]; in vivo", "value": "same concentration"}, {"measurement": "dose excreted in the urine as unchanged drug", "setting": "[5]; in vivo", "value": "more than 95%"}, {"measurement": "fraction of the drug metabolized", "setting": "[5]; in vivo", "value": "less than 5%"}, {"measurement": "placental transfer", "setting": "[5]; in vivo", "value": "crosses the placenta"}, {"measurement": "half-life for the terminal elimination phase", "setting": "[5]; intravenous dose of 1 g", "value": "about 2 hours"}, {"measurement": "plasma concentration", "setting": "[5]; one hour after intravenous 10 mg per kg body weight", "value": 18.3, "unit": "μg per mL"}, {"measurement": "excretion", "setting": "[5]; one hour after intravenous administration of 10 mg per kg body weight", "value": "about 30%"}, {"measurement": "excretion", "setting": "[5]; one hour after oral administration of 10-15 mg per kg body weight", "value": 1, "unit": "%"}, {"measurement": "effect of food intake on bioavailability", "setting": "[5]; oral", "value": "not affected"}, {"measurement": "ability to cross the blood-brain barrier", "setting": "[5]; patients with ruptured intracranial aneurysms", "value": "has been demonstrated"}, {"measurement": "aqueous humor level", "setting": "[5]; [11]", "value": 1.6, "unit": "mg per L"}, {"measurement": "peak serum level", "setting": "[5]; [11]", "value": 15.4, "unit": "mg per L"}, {"measurement": "plasma concentration", "setting": "[5]; three hours after intravenous 10 mg per kg body weight", "value": 9.6, "unit": "μg per mL"}, {"measurement": "excretion", "setting": "[5]; three hours after intravenous administration of 10 mg per kg body weight", "value": "~55", "unit": "%"}, {"measurement": "excretion", "setting": "[5]; three hours after oral administration of 10-15 mg per kg body weight", "value": 7, "unit": "%"}, {"measurement": "concentrations in saliva, initially", "setting": "[6]; after mouth rinse", "value": "above 200 μg per mL"}, {"measurement": "plasma concentrations", "setting": "[6]; after mouth rinse", "value": "below 2 μg per mL"}, {"measurement": "time saliva concentrations remained above therapeutic levels", "setting": "[6]; after mouth rinse", "value": "more than 2 hours"}, {"measurement": "saliva levels", "setting": "[6]; after oral administration, any time point", "value": "undetectable"}, {"measurement": "maximum mean plasma concentration", "setting": "[6]; after oral administration", "value": "~7", "unit": "μg per mL"}, {"measurement": "time to maximum mean plasma concentration", "setting": "[6]; after oral administration", "value": 120, "unit": "min"}, {"measurement": "binding to serum albumin", "setting": "[7]", "value": "does not bind"}, {"measurement": "thrombin time", "setting": "[8]; concentrations of 1 mg to 10 mg per mL blood", "value": "prolongs"}, {"measurement": "influence on the platelet count, the coagulation time, or various coagulation factors", "setting": "[8]; concentrations up to 10 mg per mL blood, whole blood or citrated blood from normal subjects", "value": "no influence"}]}
